Tests used:
lipoamide = compound: NC(=O)CCCCC1CCSS1 [lipoamide]; test: thermal stability z-score vs DMSO; higher = more thermally stabilized by treatment; details: HeLa, lipoamide concentration 100 µM
Procedure: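 Cellular thermal proteome profiling in HeLa cells. Cells were treated with 100 µM lipoamide for 1 h, with or without 1 mM arsenate for a further 1 h, then heated to ten temperatures (37-66.3 °C), and soluble protein was quantified by TMT mass spectrometry relative to 0.1% DMSO controls. The thermal stability score (sum of log2 fold changes minus the abundance score) was transformed to a z-score; mean of n = 3 experiments.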

potassium arsenate = compound: O=[As]([O-])(O)O.[K+] [potassium arsenate]; test: as above; details: HeLa; arsenate concentration 1 mM
Procedure: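 Cellular thermal proteome profiling in HeLa cells treated with 1 mM arsenate for 1 h (DMSO pretreatment), heated to ten temperatures (37-66.3 °C). Soluble protein was quantified by TMT mass spectrometry relative to DMSO controls; the thermal stability score was transformed to a z-score; mean of n = 3 experiments.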

[1] = arsenate co-treatment: 1 mM arsenate 1 h
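Also: each temperature applied for 3 min, abundance score taken as mean log2 fold change at the two lowest temperatures, z-score obtained by mean subtraction and division by SD.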

UniProt Q5SRE7, sequence (Q5SRE7 whole entry): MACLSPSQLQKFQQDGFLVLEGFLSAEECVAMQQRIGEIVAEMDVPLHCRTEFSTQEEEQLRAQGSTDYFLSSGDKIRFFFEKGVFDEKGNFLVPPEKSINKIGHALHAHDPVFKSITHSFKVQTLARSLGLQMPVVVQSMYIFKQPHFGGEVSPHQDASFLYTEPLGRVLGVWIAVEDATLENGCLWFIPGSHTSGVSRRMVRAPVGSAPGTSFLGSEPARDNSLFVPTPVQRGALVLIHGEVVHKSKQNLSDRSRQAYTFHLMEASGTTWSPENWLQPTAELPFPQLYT
UniProt P05161, sequence (P05161 whole entry): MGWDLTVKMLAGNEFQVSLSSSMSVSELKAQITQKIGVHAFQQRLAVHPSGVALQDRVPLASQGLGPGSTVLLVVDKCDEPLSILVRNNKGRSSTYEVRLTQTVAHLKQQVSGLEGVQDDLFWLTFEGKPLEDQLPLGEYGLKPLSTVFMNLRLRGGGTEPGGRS
UniProt Q2PZI1, sequence (Q2PZI1 whole entry): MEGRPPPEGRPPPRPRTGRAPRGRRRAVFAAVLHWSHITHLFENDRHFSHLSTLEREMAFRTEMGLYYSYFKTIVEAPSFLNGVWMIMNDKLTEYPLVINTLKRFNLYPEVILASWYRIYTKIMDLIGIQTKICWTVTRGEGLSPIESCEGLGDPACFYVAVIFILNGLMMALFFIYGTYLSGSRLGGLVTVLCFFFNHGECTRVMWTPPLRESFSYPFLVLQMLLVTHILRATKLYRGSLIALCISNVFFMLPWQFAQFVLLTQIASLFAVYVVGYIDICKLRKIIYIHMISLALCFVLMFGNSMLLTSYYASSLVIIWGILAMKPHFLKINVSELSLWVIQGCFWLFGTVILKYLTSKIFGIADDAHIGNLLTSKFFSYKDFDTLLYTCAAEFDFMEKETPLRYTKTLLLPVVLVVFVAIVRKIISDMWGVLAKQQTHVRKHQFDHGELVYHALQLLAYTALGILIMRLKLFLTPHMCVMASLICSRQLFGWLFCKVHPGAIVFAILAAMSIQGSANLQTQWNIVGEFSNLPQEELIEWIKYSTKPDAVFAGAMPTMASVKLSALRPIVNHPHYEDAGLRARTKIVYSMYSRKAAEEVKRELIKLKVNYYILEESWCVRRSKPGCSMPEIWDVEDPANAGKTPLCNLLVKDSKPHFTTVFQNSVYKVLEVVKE
UniProt Q5VTE6, sequence (Q5VTE6 whole entry): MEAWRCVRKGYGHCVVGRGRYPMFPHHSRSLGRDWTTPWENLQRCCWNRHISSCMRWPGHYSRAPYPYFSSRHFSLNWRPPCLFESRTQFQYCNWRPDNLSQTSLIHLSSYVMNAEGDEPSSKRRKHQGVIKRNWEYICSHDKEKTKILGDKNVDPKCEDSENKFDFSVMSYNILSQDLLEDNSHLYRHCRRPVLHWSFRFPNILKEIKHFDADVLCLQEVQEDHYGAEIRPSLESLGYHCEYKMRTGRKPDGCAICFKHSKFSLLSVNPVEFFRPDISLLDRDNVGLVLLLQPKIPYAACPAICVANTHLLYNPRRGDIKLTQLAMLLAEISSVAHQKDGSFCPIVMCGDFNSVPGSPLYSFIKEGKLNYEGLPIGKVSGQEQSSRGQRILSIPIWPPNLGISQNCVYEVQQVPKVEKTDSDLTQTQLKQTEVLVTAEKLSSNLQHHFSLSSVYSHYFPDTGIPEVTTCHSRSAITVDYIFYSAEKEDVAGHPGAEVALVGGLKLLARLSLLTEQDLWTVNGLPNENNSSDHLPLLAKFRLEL
UniProt Q52LJ0, sequence (Q52LJ0 whole entry): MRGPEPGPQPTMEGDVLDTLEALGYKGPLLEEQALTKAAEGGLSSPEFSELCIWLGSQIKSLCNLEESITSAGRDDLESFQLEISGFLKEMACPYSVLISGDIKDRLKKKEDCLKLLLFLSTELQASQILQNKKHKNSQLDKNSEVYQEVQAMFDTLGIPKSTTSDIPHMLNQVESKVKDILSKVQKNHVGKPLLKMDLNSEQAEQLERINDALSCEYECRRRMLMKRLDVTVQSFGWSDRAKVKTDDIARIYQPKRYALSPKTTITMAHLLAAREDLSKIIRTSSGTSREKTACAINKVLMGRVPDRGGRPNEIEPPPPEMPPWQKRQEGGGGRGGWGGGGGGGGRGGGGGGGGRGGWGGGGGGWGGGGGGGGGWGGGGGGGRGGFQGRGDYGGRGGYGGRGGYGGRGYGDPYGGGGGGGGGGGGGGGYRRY
UniProt P42356, sequence (P42356 whole entry, looked up): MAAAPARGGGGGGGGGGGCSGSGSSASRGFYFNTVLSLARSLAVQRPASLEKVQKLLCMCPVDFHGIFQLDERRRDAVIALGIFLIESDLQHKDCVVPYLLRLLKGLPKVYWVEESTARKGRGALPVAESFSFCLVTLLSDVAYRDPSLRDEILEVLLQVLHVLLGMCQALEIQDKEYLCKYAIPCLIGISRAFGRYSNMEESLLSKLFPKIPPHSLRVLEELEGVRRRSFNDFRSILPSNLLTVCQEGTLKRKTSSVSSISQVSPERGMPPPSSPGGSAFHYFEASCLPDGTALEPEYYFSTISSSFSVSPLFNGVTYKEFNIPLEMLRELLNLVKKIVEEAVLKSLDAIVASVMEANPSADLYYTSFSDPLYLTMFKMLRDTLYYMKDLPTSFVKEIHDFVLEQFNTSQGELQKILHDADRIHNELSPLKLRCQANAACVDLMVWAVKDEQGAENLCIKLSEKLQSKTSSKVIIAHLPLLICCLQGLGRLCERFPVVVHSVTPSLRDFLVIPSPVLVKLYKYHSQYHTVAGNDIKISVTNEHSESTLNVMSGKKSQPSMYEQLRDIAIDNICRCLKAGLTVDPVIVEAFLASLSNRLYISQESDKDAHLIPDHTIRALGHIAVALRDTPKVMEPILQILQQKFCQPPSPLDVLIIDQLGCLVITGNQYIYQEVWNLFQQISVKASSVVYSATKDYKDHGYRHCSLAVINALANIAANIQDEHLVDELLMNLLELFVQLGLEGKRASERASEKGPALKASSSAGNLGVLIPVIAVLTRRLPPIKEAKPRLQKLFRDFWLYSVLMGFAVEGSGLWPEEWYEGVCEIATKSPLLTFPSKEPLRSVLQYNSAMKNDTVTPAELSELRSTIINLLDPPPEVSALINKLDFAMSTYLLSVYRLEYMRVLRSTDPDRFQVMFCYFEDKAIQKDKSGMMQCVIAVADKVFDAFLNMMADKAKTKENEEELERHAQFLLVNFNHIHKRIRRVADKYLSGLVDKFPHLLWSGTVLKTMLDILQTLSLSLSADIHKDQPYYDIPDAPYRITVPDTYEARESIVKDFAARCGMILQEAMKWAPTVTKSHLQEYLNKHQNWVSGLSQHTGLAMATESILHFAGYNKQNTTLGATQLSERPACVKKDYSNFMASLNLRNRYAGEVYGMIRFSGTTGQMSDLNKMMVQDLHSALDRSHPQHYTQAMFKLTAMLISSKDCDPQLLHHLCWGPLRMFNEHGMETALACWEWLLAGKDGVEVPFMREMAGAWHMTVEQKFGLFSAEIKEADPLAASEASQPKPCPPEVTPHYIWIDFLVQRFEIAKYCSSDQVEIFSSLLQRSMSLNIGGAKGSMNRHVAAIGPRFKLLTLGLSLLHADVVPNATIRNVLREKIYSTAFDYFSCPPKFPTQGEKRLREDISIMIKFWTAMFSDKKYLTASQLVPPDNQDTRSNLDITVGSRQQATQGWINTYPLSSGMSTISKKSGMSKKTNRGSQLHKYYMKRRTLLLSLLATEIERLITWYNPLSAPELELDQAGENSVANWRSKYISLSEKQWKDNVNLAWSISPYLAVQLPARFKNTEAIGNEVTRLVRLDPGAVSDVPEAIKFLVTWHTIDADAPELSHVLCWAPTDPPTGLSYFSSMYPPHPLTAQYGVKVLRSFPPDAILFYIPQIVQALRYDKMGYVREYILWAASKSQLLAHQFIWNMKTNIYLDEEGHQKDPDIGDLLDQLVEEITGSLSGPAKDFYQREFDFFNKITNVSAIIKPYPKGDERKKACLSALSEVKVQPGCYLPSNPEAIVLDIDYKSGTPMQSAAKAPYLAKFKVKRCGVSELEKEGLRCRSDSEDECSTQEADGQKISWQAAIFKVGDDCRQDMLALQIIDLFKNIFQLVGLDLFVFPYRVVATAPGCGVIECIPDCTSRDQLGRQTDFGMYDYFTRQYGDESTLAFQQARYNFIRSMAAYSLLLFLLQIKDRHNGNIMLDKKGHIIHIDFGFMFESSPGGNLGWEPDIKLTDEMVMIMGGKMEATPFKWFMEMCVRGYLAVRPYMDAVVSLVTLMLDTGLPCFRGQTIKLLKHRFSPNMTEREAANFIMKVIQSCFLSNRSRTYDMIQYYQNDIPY
UniProt Q99961, sequence (Q99961 whole entry): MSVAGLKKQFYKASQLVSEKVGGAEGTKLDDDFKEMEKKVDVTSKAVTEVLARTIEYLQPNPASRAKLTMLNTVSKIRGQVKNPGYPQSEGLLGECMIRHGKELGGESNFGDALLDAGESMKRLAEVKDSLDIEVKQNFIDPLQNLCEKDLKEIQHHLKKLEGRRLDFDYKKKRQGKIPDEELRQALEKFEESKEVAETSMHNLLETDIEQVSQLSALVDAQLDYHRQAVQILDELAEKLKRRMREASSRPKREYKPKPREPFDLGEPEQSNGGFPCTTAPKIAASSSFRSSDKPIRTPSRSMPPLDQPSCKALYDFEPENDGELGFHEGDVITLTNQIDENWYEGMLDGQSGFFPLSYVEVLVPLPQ
UniProt Q96F44, sequence (Q96F44 whole entry): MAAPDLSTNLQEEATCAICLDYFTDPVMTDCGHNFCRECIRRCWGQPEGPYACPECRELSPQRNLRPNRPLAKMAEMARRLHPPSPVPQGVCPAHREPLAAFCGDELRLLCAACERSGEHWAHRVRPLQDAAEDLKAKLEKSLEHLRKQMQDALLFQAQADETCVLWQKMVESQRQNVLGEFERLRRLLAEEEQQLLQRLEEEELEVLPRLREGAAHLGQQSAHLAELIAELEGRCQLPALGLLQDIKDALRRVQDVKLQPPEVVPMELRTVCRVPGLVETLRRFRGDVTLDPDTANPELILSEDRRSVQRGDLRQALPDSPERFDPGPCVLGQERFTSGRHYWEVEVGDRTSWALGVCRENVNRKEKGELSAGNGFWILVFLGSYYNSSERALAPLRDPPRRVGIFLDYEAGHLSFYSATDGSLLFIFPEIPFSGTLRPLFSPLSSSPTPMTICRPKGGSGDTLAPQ

Target | thermal stability z-score (lipoamide; [1]) | thermal stability z-score (lipoamide; arsenate co-treatment: none) | thermal stability z-score (potassium arsenate)
ANGEL2 (UniProt Q5VTE6) | -0.111 | -0.19 | -0.0197
LHPP (UniProt Q9H008) | 1.03 | 0.991 | 0.146
CHORDC1 (UniProt Q9UHD1) | 0.149 | 0.043 | -0.23
MTFR1 (UniProt Q15390) | -0.301 | 0.52 | 0.165
CYP20A1 (UniProt Q6UW02) | 0.107 | 0.633 | 0.0905
DIP2A (UniProt Q14689) | 0.82 | -0.0406 | -0.205
HDAC1 (UniProt Q13547) | – | 3.56 | -0.601
TXNDC5 (UniProt Q8NBS9) | -2.16 | -1.86 | 0.0646
DDX27 (UniProt Q96GQ7) | 0.47 | 0.52 | -0.231
NONO (UniProt Q15233) | 1.05 | 0.927 | -0.137
SSBP4 (UniProt Q9BWG4) | 1.24 | 1.21 | -0.402
DHX38 (UniProt Q92620) | -0.164 | 0.0335 | -0.406
CRTC3 (UniProt Q6UUV7) | -0.316 | -0.025 | 0.1
DDA1 (UniProt Q9BW61) | 0.456 | -0.211 | 0.665
YKT6 (UniProt O15498) | -0.198 | 0.453 | -0.597
AGPAT5 (UniProt Q9NUQ2) | -0.478 | -0.94 | -0.259
AEBP2 (UniProt Q6ZN18) | -0.0576 | -0.195 | -0.00304
PI4KA (UniProt P42356) | -0.343 | -0.333 | -0.732
DARS2 (UniProt Q6PI48) | -0.726 | -0.586 | -1.93
GFM1 (UniProt Q96RP9) | -0.469 | 0.0798 | -1.15
TIA1 (UniProt P31483) | -0.376 | 0.000117 | -1.08
FBXO22 (UniProt Q8NEZ5) | 0.0761 | -0.0297 | -0.412
ATM (UniProt Q13315) | 0.678 | -0.445 | 0.00628
RNASEH2A (UniProt O75792) | 0.0654 | 0.493 | 0.138

Target | thermal stability z-score (lipoamide; [1]) | thermal stability z-score (lipoamide; arsenate co-treatment: none) | thermal stability z-score (potassium arsenate)
MRPL40 (UniProt Q9NQ50) | 0.157 | 0.0972 | -0.0198
BUB3 (UniProt O43684) | -0.0475 | -0.134 | -0.833
DSG2 (UniProt Q14126) | -0.108 | 0.19 | 0.99
ISCU (UniProt Q9H1K1) | 0.628 | 0.0375 | -1.15
GTPBP2 (UniProt Q9BX10) | 0.122 | 0.0371 | 0.0134
TLK1 (UniProt Q9UKI8) | 0.193 | -0.983 | 0.956
LYSMD2 (UniProt Q8IV50) | 1.24 | 0.886 | 1.46
EIF4B (UniProt P23588) | 0.102 | 0.429 | 0.032
SETD1A (UniProt O15047) | 0.233 | -0.516 | -0.413
PGM3 (UniProt O95394) | 0.0643 | -0.0248 | 0.188
PRDX5 (UniProt P30044) | -0.275 | 0.138 | -0.761
RALGAPB (UniProt Q86X10) | -0.0332 | -0.00538 | -0.112
PCCA (UniProt P05165) | 0.202 | 0.198 | -0.314
DAB2 (UniProt P98082) | 0.216 | 0.404 | 1.73
FAM98B (UniProt Q52LJ0) | 0.052 | -0.438 | -1.01
ZC3H15 (UniProt Q8WU90) | -0.032 | -0.0996 | 0.0266
XAB2 (UniProt Q9HCS7) | -0.104 | -0.113 | 0.256
ISG15 (UniProt P05161) | 0.471 | 0.327 | 0.355
SH3GL1 (UniProt Q99961) | -0.0464 | 0.144 | 0.538
AFTPH (UniProt Q6ULP2) | -0.18 | 0.15 | 0.102
KIAA1468 (UniProt Q9P260) | 0.284 | 0.0862 | -0.0466
TTI2 (UniProt Q6NXR4) | -1.12 | -0.63 | 0.0606
CIZ1 (UniProt Q9ULV3) | 0.0439 | -0.505 | -0.0848
HSPB8 (UniProt Q9UJY1) | -0.255 | 0.0407 | -0.597

Target | thermal stability z-score (lipoamide; [1]) | thermal stability z-score (lipoamide; arsenate co-treatment: none) | thermal stability z-score (potassium arsenate)
PHYHD1 (UniProt Q5SRE7) | -0.0705 | 0.173 | 0.196
TMEM161A (UniProt Q9NX61) | -0.0739 | -0.0906 | 0.0752
RBMX (UniProt P38159) | 1.51 | 0.311 | -0.366
MVP (UniProt Q14764) | 0.484 | 0.37 | 1.08
ERLIN1 (UniProt O75477) | -3.16 | -2.57 | -1.15
TPX2 (UniProt Q9ULW0) | 0.967 | 0.322 | 0.448
TRIM11 (UniProt Q96F44) | -0.68 | -1.71 | -1.05
NCK1 (UniProt P16333) | -0.705 | -0.905 | -0.0139
PPP1R13L (UniProt Q8WUF5) | -0.367 | -0.132 | -0.21
EIF4A1 (UniProt P60842) | 0.413 | 0.201 | 0.0167
ECD (UniProt O95905) | -0.47 | -0.00943 | -0.232
PHLDB2 (UniProt Q86SQ0) | -1.07 | -0.89 | -0.277
MCM7 (UniProt P33993) | -0.43 | -0.294 | -0.228
FLNB (UniProt O75369) | 0.683 | 0.798 | -0.574
CNP (UniProt P09543) | 1.14 | 0.855 | -0.287
ANAPC4 (UniProt Q9UJX5) | -0.529 | -0.278 | -1.3
ATPAF2 (UniProt Q8N5M1) | -0.263 | -0.0435 | -0.318
SUB1 (UniProt P53999) | 0.206 | 0.0783 | 0.0838
DPY19L1 (UniProt Q2PZI1) | -0.0328 | -0.259 | -0.259
SDE2 (UniProt Q6IQ49) | -0.399 | -0.282 | -1.16
XRN1 (UniProt Q8IZH2) | -0.0709 | -0.0695 | -0.357
ABLIM1 (UniProt O14639) | 0.77 | 1.47 | -1.82
CHCHD3 (UniProt Q9NX63) | 0.334 | 0.581 | 0.417
HAGH (UniProt Q16775) | 0.41 | -0.0853 | 0.158
